Data from PMC12316891, “A bottom-up approach to find lead compounds in expansive chemical spaces” (Communications Chemistry, 2025).
pIC50: −log10 of the molar value.

Experiments:
[1] = target: T1, His6-BRD4 (BD1) (Homo sapiens, UniProt O60885); assay: Surface plasmon resonance (SPR) single-dose screening; assay type: binding; set-up: key to SPR RESULT: Positive: compounds were considered as SPR hits also when their average signal was further than two standard deviations apart from the average signal of the blank samples (1% DMSO); details: for RUs at [10 µM]: SPR, compound 10 µM, 1% DMSO, n = 2, decimal comma; for SPR RESULT: single dose 10 µM, n = 2
T1 construct: A pET28 plasmid containing residues 44–168 of BRD4 (BD1), a 6xHis tag, a TEV protease cleavage site; made in house; host or cells: E. coli Rosetta (D3)

[2] = target: T2, BRD4 (BD1) (Homo sapiens, UniProt O60885); assay: Differential scanning fluorimetry (DSF) single-dose thermal shift screening; assay type: binding; details: DSF, compound 10 µM, BRD4 (BD1) 2 µM, n = 3, decimal comma; read-out: ΔTm ºC at [10 µM]
T2 construct: A pET28 plasmid containing residues 44–168 of BRD4 (BD1), a 6xHis tag, a TEV protease cleavage site; 6xHis (N, cleaved yes); made in house; host or cells: E. coli Rosetta (D3)

[3] = target: T2, BRD4 (BD1); assay: Competitive HTRF TR-FRET binding assay (displacement of acetylated histone H4 peptide); details: for pIC50 / TR-FRET IC50 (nM): 16-point titration 0.1 nM to 10 µM, n = 2, Negative = curve could not be fitted to a sigmoidal curve; for pIC50: read-out: TR-FRET IC50

SMILES | RUs at [10 µM] [1] | SPR RESULT [1] | ΔTm at 10 µM [2] [°C] | pIC50 [3] | TR-FRET IC50 (nM) [3] | IC50 by HTRF TR-FRET, range in words ([3]; potency range or dose-response behaviour)
COc1cccc(-n2nc(-c3cscn3)nc2-c2cn(C)c(=O)c3ccccc23)c1 [Compound 58, COC=1C=CC=C(C1)N2N=C(N=C2C3=CN(C)C(=O)C=4C=CC=CC34)C5=CSC=N5] | 75,54 ± 39,86 RUs | Negative | 2.28 | 6.29 | – | –
Cc1nnc2sc(C(=O)N(C)C3CN(C(=O)CCC(C)N(C)C)CC34CC4)c(N)c2c1C (stereo not drawn) [Compound 59, CC(CCC(=O)N1CC(N(C)C(=O)C=2SC=3N=NC(C)=C(C)C3C2N)C4(CC4)C1)N(C)C] | 13,73 ± 9,32 RUs | Negative | 4.12 | – | Negative | –
Cc1nnc2sc(C(=O)N3CCC4(CCC(NC(=O)Cc5csc(Cl)c5)CC4)CC3)c(N)c2c1C [Compound 60, CC=1N=NC=2SC(C(=O)N3CCC4(CCC(CC4)NC(=O)CC5=CSC(Cl)=C5)CC3)=C(N)C2C1C] | 48,37 ± 15,77 RUs | Positive | 0.94 | – | Negative | –
CCCc1c(C(=O)N2CCCC2Cn2cc(-c3cc(C)nc(C)c3)nn2)[nH]c(C)c1C(C)=O (stereo not drawn) [Compound 61, CCCC1=C(NC(C)=C1C(=O)C)C(=O)N2CCCC2CN3C=C(N=N3)C=4C=C(C)N=C(C)C4] | 15,14 ± 5,89 RUs | Negative | 0.49 | 7.10 | – | –
COC1CC(CCC(=O)NC2CC3(CCN(C(=O)c4occc4Br)C3)Oc3ccccc32)C1 (stereo not drawn) [Compound 62, COC1CC(CCC(=O)NC2CC3(CCN(C3)C(=O)C=4OC=CC4Br)OC=5C=CC=CC25)C1] | 23,54 ± 4,84 RUs | Positive | -0.15 | – | Negative | –
COC1(CNC(=O)c2nscc2Br)CN(C(=O)C2CCS(=O)(=O)N2)C1 (stereo not drawn) [Compound 63, COC1(CNC(=O)C2=NSC=C2Br)CN(C1)C(=O)C3CCS(=O)(=O)N3] | 13,51 ± 3,27 RUs | Negative | 0.7 | – | Negative | –
Cc1cc(C)n2nc(CC(=O)NCC(C)(C)Cn3cc(-c4sccc4C)nn3)nc2n1 [Compound 64, CC=1C=CSC1C2=CN(CC(C)(C)CNC(=O)CC=3N=C4N=C(C)C=C(C)N4N3)N=N2] | 25,91 ± 0,65 RUs | Positive | 0.1 | – | Negative | –
CNC(=O)C1(C(=O)N[C@@H]2CCCC[C@H]2NC(=O)c2cnsn2)CCC1 [Compound 65, CNC(=O)C1(CCC1)C(=O)N[C@@H]2CCCC[C@H]2NC(=O)C=3C=NSN3] | 7,82 ± 0,92 RUs | Negative | 0.32 | 7.54 | – | –
COc1cccnc1C(=O)N1CCC2(CC(NC(=O)c3occc3Br)c3ccccc3O2)C1 (stereo not drawn) [Compound 66, COC=1C=CC=NC1C(=O)N2CCC3(C2)CC(NC(=O)C=4OC=CC4Br)C=5C=CC=CC5O3] | 20,41 ± 1,87 RUs | Positive | 0.83 | 6.87 | – | –
Cc1cc(C)n2c(CNc3ccc(C)c(NC(=O)CN4CCCCC4)c3)cnc2n1 [Compound 67, CC=1C=C(C)N2C(CNC=3C=CC(C)=C(NC(=O)CN4CCCCC4)C3)=CN=C2N1] | 28,42 ± 2,09 RUs | Positive | 0.81 | 8.43 | – | low nM
CC(=O)c1ccc(N2CCN(C(=O)Nc3nnc(C)s3)CC2)c(F)c1 [Compound 69, CC(=O)C=1C=CC(N2CCN(CC2)C(=O)NC3=NN=C(C)S3)=C(F)C1] | 23,49 ± 1,0 RUs | Positive | 0.61 | – | Negative | –
COc1ccc(C=C(CC(=O)Nc2nnc(C)s2)c2nc3ccccc3s2)cc1OC [Compound 70, COC=1C=CC(C=C(CC(=O)NC2=NN=C(C)S2)C3=NC=4C=CC=CC4S3)=CC1OC] | 21,72 ± 4,06 RUs | Positive | 0.65 | 6.91 | – | –
Cc1cc(C)n2nc(NC(=O)NCCOC3(C)CCOCC3)nc2n1 [Compound 71, CC=1C=C(C)N2N=C(NC(=O)NCCOC3(C)CCOCC3)N=C2N1] | 11,01 ± 0,31 RUs | Positive | 0.79 | 7.15 | – | –
Cc1ncc(CNC(=O)NCc2cccc(S(=O)(=O)NC(C)C)c2)c(O)n1 [Compound 72, CC(C)NS(=O)(=O)C=1C=CC=C(CNC(=O)NCC=2C=NC(C)=NC2O)C1] | 19,09 ± 5,61 RUs | Positive | 0.51 | 7.03 | – | –
Cc1nnc(NC(=O)NCc2cccc(C(=O)NCC3CCCO3)c2)s1 (stereo not drawn) [Compound 73, CC1=NN=C(NC(=O)NCC=2C=CC=C(C2)C(=O)NCC3CCCO3)S1] | 23,59 ± 6,69 RUs | Positive | 1.13 | 4.97 | – | –
Cc1cc(C)n2nc(NC(=O)N3CCC(CCC(C)(C)C)C3)nc2n1 (stereo not drawn) [Compound 74, CC=1C=C(C)N2N=C(NC(=O)N3CCC(CCC(C)(C)C)C3)N=C2N1] | 52,94 ± 6,92 RUs | Positive | 0.4 | 5.86 | – | –
Cc1ncc(CNC(=O)c2c(-c3ccccc3)nn3ccccc23)c(O)n1 [Compound 75, CC=1N=CC(CNC(=O)C=2C(=NN3C=CC=CC23)C=4C=CC=CC4)=C(O)N1] | 14,74 ± 1,95 RUs | Positive | 1.2 | – | Negative | –
Cc1nnc(NC(=O)CCC(=O)N2Cc3ccccc3OC3(CCOC3)C2)s1 (stereo not drawn) [Compound 76, CC1=NN=C(NC(=O)CCC(=O)N2CC=3C=CC=CC3OC4(CCOC4)C2)S1] | 25 ± 11,77 RUs | Negative | 2.11 | 6.39 | – | –
Cc1cc(C)n2nc(NC(=O)N3CCc4cc(Cl)cc(Cl)c4C3)nc2n1 [Compound 77, CC=1C=C(C)N2N=C(NC(=O)N3CCC=4C=C(Cl)C=C(Cl)C4C3)N=C2N1] | 67,27 ± 12,19 RUs | Positive | 0.48 | 6.87 | – | –
Cc1cc(C(=O)NCCc2nc3cc(Cl)ccc3[nH]2)n2ncnc2n1 [Compound 78, CC=1C=C(C(=O)NCCC2=NC=3C=C(Cl)C=CC3N2)N4N=CN=C4N1] | 9,01 ± 0,76 RUs | Positive | 1.53 | 6.77 | – | –
